Values of other authors as cited in US20060106545A1, “Methods of clustering proteins” (Jubilant Biosys Ltd., priority 2004, published 2006).

Experiments:
SAPK2 = details: kinase SAPK2
[1] = molecular target: T1, SAPK3 (Stress-activated protein kinase 3) (Homo sapiens, UniProt P53778)
T1 sequence (P53778 1-367): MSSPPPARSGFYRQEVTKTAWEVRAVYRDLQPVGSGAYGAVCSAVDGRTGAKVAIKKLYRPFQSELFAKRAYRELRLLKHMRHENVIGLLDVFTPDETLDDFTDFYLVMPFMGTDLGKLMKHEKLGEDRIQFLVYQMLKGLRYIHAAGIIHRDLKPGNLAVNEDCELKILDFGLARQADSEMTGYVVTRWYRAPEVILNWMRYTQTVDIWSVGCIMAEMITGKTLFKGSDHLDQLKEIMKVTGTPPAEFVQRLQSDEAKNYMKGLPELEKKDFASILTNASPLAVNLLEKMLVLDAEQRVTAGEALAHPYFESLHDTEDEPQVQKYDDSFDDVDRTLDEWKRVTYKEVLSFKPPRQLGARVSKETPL

[2] = tested on: MKK (Mitogen activated protein kinase kinase)
[3] = molecular target: MAPK2 (Mitogen-activated protein kinase 2) (Homo sapiens, UniProt P28482)
Chain of MAPK2 (Mitogen-activated protein kinase 2) (P28482 whole entry): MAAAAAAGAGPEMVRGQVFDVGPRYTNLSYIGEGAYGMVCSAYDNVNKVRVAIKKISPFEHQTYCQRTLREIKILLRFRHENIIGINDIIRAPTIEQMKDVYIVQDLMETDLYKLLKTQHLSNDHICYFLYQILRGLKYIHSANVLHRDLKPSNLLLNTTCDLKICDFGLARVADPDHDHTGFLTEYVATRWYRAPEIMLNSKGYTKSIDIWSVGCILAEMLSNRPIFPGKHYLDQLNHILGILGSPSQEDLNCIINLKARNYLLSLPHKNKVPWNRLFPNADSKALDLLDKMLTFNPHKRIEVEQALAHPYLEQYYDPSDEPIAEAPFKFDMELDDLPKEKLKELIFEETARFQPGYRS

CK2 (Casein kinase 2) = CK2 (Casein kinase 2) (Homo sapiens, UniProt P68400)
Chain of CK2 (Casein kinase 2) (P68400 whole entry): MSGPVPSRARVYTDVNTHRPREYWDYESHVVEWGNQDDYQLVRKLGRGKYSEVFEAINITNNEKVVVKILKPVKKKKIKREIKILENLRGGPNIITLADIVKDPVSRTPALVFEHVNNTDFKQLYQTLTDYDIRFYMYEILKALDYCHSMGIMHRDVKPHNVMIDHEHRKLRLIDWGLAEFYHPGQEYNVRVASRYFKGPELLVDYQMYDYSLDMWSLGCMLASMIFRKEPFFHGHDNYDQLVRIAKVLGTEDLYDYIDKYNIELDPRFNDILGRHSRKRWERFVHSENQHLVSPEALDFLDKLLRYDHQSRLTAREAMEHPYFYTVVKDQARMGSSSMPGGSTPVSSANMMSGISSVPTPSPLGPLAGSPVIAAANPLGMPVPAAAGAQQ

PKB (Protein kinase B) = PKB (Protein kinase B) (Homo sapiens, UniProt P31749)
Chain of PKB (Protein kinase B) (P31749 whole entry): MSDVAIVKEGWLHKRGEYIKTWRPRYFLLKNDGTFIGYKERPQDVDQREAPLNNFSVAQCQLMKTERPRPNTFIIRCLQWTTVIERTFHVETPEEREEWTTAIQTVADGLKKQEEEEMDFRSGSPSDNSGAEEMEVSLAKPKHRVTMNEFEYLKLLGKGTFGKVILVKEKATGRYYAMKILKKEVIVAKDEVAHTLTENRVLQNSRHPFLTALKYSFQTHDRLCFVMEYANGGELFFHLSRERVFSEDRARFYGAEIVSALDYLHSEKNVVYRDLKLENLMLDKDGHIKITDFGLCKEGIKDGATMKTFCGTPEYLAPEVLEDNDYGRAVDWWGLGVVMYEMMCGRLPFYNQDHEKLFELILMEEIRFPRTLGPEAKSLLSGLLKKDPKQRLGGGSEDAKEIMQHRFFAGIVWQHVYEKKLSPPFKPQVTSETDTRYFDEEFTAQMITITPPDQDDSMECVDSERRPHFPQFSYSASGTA

Compound | % of Expression Bain et al. (SAPK2) | percentage of expression, Bain et al., (2003) [1] | % of Expression Bain et al. [2] | % of Expression Bain et al., (2002) [3] | % of Expression Bain et al., (2002) (CK2 (Casein kinase 2)) | % of Expression Bain et al., (2002) (PKB (Protein kinase B))
CC(C)[C@H](CO)Nc1nc(Nc2cccc(Cl)c2)c2ncn(C(C)C)c2n1 [Purvalanol] | >80% | more than 80% | – | – | – | –
O=C1Cc2c([nH]c3ccc(Br)cc23)-c2ccccc2N1 [Kenpaullone] | – | – | >80% | 60-80% | >80% | 40-60%
